Data set [1] concerns the target T1, Prostaglandin G/H synthase 2 (Homo sapiens, UniProt P35354).
T1 sequence (P35354 whole entry): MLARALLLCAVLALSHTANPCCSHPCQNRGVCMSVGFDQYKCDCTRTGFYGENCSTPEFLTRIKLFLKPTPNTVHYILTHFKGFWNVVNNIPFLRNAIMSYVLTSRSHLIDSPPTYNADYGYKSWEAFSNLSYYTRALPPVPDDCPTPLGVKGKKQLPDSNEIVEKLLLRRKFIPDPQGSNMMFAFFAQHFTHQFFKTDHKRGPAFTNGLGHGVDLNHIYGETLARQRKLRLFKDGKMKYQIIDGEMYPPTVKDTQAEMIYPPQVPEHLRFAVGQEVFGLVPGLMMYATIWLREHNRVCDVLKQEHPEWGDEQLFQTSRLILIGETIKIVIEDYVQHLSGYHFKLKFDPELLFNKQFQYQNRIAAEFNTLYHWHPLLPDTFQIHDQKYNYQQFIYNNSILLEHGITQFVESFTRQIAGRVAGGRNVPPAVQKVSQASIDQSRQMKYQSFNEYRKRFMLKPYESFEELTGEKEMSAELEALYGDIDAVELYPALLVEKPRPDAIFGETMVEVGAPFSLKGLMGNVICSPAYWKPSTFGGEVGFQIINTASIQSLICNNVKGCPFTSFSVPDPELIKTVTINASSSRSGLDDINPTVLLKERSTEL
On the set-up: species or system Blood.

For data set [2], the target named is Prostaglandin G/H synthase 1 (Homo sapiens, UniProt P23219). On the set-up: species or system Blood.
Prostaglandin G/H synthase 1, sequence (P23219 whole entry): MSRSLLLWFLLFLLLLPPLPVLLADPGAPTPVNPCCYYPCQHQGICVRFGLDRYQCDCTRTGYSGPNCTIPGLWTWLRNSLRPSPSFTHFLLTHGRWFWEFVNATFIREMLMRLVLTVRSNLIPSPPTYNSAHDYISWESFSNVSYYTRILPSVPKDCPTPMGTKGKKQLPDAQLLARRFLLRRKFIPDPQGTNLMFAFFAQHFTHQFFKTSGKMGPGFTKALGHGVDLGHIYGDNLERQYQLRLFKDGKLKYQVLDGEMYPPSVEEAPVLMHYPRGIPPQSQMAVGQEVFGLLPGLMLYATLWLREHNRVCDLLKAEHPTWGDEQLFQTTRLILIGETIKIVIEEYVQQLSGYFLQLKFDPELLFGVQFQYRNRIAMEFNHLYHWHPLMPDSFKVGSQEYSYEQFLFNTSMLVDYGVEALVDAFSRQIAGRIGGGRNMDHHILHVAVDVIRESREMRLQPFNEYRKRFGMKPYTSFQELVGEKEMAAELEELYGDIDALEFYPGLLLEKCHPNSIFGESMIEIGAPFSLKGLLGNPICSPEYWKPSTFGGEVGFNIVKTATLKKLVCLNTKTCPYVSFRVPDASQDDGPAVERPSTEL
Data set [3] is described as follows: Plasma concentration in Wistar rat lambda carrageenan-induced pleurisy model at 20 mg/kg, ip pretreated for 30 mins followed by lambda carrageenan-challenge measured after 4 hrs by SPE-HPLC analysis. The format is ADME, organism-based. On the set-up: dose 20 mg/kg, route intraperitoneal.
A short description of data set [4]: Plasma concentration in Wistar rat lambda carrageenan-induced pleurisy model at 10 mg/kg, ip pretreated for 30 mins followed by lambda carrageenan-challenge measured after 4 hrs by SPE-HPLC analysis. The format is ADME, organism-based. Also noted: dose 10 mg/kg, route intraperitoneal.
Data set [5] can be described thus: Plasma concentration in Wistar rat lambda carrageenan-induced pleurisy model at 5 mg/kg, ip pretreated for 30 mins followed by lambda carrageenan-challenge measured after 4 hrs by SPE-HPLC analysis. The class given is ADME, organism-based. Also noted: dose 5 mg/kg, route intraperitoneal.
Data set [6] has as its system Rattus norvegicus. Briefly: Antiinflammatory activity in Wistar rat lambda carrageenan-induced pleurisy model assessed as decrease in number of leukocytes in pleural space at 20 mg/kg, ip pretreated for 30 mins followed by lambda carrageenan-challenge measured after 4 hrs relative to control. The format is functional. Also noted: scale not given: the % may be the effect or the level left.

Data set [7] concerns Rattus norvegicus. Briefly: Antiinflammatory activity in Wistar rat lambda carrageenan-induced pleurisy model assessed as decrease in number of leukocytes in pleural space at 10 mg/kg, ip pretreated for 30 mins followed by lambda carrageenan-challenge measured after 4 hrs relative to control. Also noted: scale not given: the % may be the effect or the level left. The class given is functional.

In data set [8] the test system is Rattus norvegicus. Briefly: Antiinflammatory activity in Wistar rat lambda carrageenan-induced pleurisy model assessed as decrease in number of leukocytes in pleural space at 5 mg/kg, ip pretreated for 30 mins followed by lambda carrageenan-challenge measured after 4 hrs relative to control. The format is functional. Also noted: scale not given: the % may be the effect or the level left.

Data set [9] concerns Rattus norvegicus. Briefly: Antiinflammatory activity in Wistar rat lambda carrageenan-induced pleurisy model assessed as decrease in exudate volume at 20 mg/kg, ip pretreated for 30 mins followed by lambda carrageenan-challenge measured after 4 hrs relative to control. The format is functional. As to conditions: route intraperitoneal.
Data set [10] concerns Rattus norvegicus. Briefly: Antiinflammatory activity in Wistar rat lambda carrageenan-induced pleurisy model assessed as decrease in exudate volume at 10 mg/kg, ip pretreated for 30 mins followed by lambda carrageenan-challenge measured after 4 hrs relative to control. Particulars: route intraperitoneal. The class given is functional.
Data set [11] relates to Rattus norvegicus. Briefly: Antiinflammatory activity in Wistar rat lambda carrageenan-induced pleurisy model assessed as decrease in exudate volume at 5 mg/kg, ip pretreated for 30 mins followed by lambda carrageenan-challenge measured after 4 hrs relative to control. Particulars: route intraperitoneal. The class given is functional.
Data set [12] in a line: Retention time of the compound by chromatographic analysis. The format is physicochemical.

pIC50: −log10 of the molar value. Active and inactive are the calls of the source. The rule behind the calls is not given here.

A word on the pIC50: it is the IC50 on a negative log10 scale, so that one unit is a factor of ten. One may read the inhibition in vivo as the percentage by which the read-out fell short of the control.

In the case of `Cc1ccc(Nc2cnccc2NS(=O)(=O)C(F)(F)F)cc1Cl`, the pIC50 in data set [1] was 5.71; in [2], 5.83.
For `Cc1cc(Nc2cnccc2NS(=O)(=O)C(F)(F)F)ccc1Br` the same measures were 6.52 and 5.63.
On to `O=S(=O)(Nc1ccncc1Nc1ccc(F)c(Br)c1)C(F)(F)F`, for which the concentration at 4 h in data set [3] was found to be 59100 ng/mL; in data set [4], 34100 ng/mL; in data set [5], 11400 ng/mL. Besides, the Activity in the data set on Rattus norvegicus [6] (route intraperitoneal) amounted to 69.78%; in the data set on Rattus norvegicus [7] (route intraperitoneal) it was 41.22%; in the data set on Rattus norvegicus [8] (route intraperitoneal), 11.13%. In the data set with Rattus norvegicus [9], the inhibition in vivo at 20 mg/kg was 66.5%. Besides, the inhibition in vivo at 10 mg/kg in the data set on Rattus norvegicus [10] was 42.6%. For the same molecule, the inhibition in vivo at 5 mg/kg with Rattus norvegicus [11] was 21.9%. Further, the figures for the pIC50 in data set [1] and in [2] were 5.64 and 5.87, respectively.
For the molecule `O=S(=O)(Nc1ccncc1Nc1cccc(F)c1)C(F)(F)F`, the pIC50 was 6.62 in data set [1] and 6.36 in data set [2].
For the molecule `Cc1ccc(Nc2cnccc2NS(=O)(=O)C(F)(F)F)cc1C`, the results for the negative-log IC50 (pIC50) in [1] and in [2] were 6.26 and 6.15, respectively.
Turning to `O=S(=O)(Nc1ccncc1Nc1ccccc1)C(F)(F)F`, the concentration at 4 h in [3] is 3620 ng/mL; in [4] it was 1540 ng/mL; in data set [5], 720 ng/mL. For the same molecule, the Activity in the data set with Rattus norvegicus [6] (route intraperitoneal) was 51.7%; with Rattus norvegicus [7] (route intraperitoneal) it was 34.83%; in the data set on Rattus norvegicus [8] (route intraperitoneal), 24.82%. Also, the inhibition in vivo at 20 mg/kg with Rattus norvegicus [9] turned out to be 72.2%. Further, the inhibition in vivo at 10 mg/kg in the data set with Rattus norvegicus [10] was 55.7%. Besides, the inhibition in vivo at 5 mg/kg with Rattus norvegicus [11] came out at 25.4%.
Regarding `O=S(=O)(Nc1ccncc1Nc1cccc(Cl)c1)C(F)(F)F`, the concentration at 4 h in data set [3] was 1400 ng/mL; in data set [4], 680 ng/mL; in [5] it was 560 ng/mL. For the same molecule, the Activity with Rattus norvegicus [6] (route intraperitoneal) is recorded as 16.41%. The result in the data set on Rattus norvegicus [7] and in the data set with Rattus norvegicus [8] was inactive.
Regarding `Cc1ccc(Nc2cnccc2NS(C)(=O)=O)cc1C`, the figures for the pIC50 in data set [1] and in data set [2] were 4.51 and 5.48, respectively.
Turning to `O=S(=O)(C1CC1)N(c1ccncc1Nc1ccccc1)S(=O)(=O)C1CC1`, the pIC50 in data set [1] was 4.25; in [2] it was 4.71.
With `CS(=O)(=O)Nc1ccncc1Nc1cccc(F)c1`, the pIC50 in [1] is 5.00; in data set [2] it was 5.86.
`CCCC(C)C1(CC)C(=O)NC(=O)NC1=O` (centres undefined) [PENTOBARBITAL] returned a Retention_time in [12] of 11.71 min.
For `O=S(=O)(Nc1ccncc1Nc1ccc(Cl)cc1)C(F)(F)F`, the concentration at 4 h in [3] was 27300 ng/mL; in [4], 9490 ng/mL; in data set [5], 4610 ng/mL. The Activity in the data set with Rattus norvegicus [6] (route intraperitoneal) is 72.47%; in the data set with Rattus norvegicus [7] (route intraperitoneal), 54.44%; in the data set on Rattus norvegicus [8] (route intraperitoneal) it was 44.15%.
For `CS(=O)(=O)Nc1ccncc1Nc1ccc(F)cc1`, the pIC50 in [1] was 4.68; in [2] it was 5.68.
Turning to `O=S(=O)(Nc1ccncc1Nc1ccc(O)cc1)C(F)(F)F`, the negative logarithm of the IC50 (pIC50) in data set [1] was less than 4.00; in data set [2] it was 4.74.
Take `CS(=O)(=O)Nc1ccc([N+](=O)[O-])cc1Oc1ccccc1` [NIMESULIDE]: the concentration at 4 h in data set [3] was determined as 75200 ng/mL; in data set [4], 41300 ng/mL; in data set [5], 17000 ng/mL. Further, the Activity was found to be 72.93% with Rattus norvegicus [6] (route intraperitoneal), 52.05% in the data set with Rattus norvegicus [7] (route intraperitoneal) and 23.08% in the data set with Rattus norvegicus [8] (route intraperitoneal). In the data set with Rattus norvegicus [10], the inhibition in vivo at 10 mg/kg is 48.4%. Moreover, in the data set on Rattus norvegicus [11], the inhibition in vivo at 5 mg/kg is 31.1%.
As for `O=S(=O)(Nc1ccncc1Nc1cccc(Br)c1)C(F)(F)F`, in data set [12], the Retention_time is 13.65 min. Also, the values for the concentration at 4 h in [3], in [4] and in data set [5] were 820 ng/mL, 430 ng/mL and 300 ng/mL, respectively. The Activity is 28.52% with Rattus norvegicus [6] (route intraperitoneal), 27.07% with Rattus norvegicus [7] (route intraperitoneal) and 27.1% with Rattus norvegicus [8] (route intraperitoneal).
With `O=S(=O)(Nc1ccncc1Nc1ccccc1)C1CC1`, the pIC50 in [1] was 4.45; in data set [2], 5.44.
Turning to `Cc1cc(C)cc(Nc2cnccc2NS(C)(=O)=O)c1`, the values for the pIC50 in data set [1] and in data set [2] were less than 4.00 and 4.83, respectively.
For `Cc1cccc(Nc2cnccc2NS(=O)(=O)C(F)(F)F)c1`, the results for the concentration at 4 h in data set [3], in [4] and in data set [5] were 410 ng/mL, 200 ng/mL and 100 ng/mL, respectively. Moreover, the Activity in the data set with Rattus norvegicus [6] (route intraperitoneal) is reported as 50.18%; in the data set on Rattus norvegicus [7] (route intraperitoneal) it was 24.98%; in the data set on Rattus norvegicus [8] (route intraperitoneal) it was 17.07%.
Turning to `O=S(=O)(Nc1ccncc1Nc1cccc(I)c1)C(F)(F)F`, the pIC50 in data set [1] is 6.59; in data set [2], 5.71.
Consider `Cc1cc(C)cc(Nc2cnccc2NS(=O)(=O)C(F)(F)F)c1`, for which the pIC50 is 5.98 in data set [1] and 5.39 in [2].
For `N#Cc1cccc(Nc2cnccc2NS(=O)(=O)C(F)(F)F)c1` the same measures were 4.44 and 5.18.
As for `O=S(=O)(Nc1ccncc1Nc1ccc(F)c(Cl)c1)C(F)(F)F`, the concentration at 4 h was found to be 54600 ng/mL in [3], 30000 ng/mL in data set [4] and 13000 ng/mL in data set [5]. For the same molecule, the Activity is listed as 64.71% with Rattus norvegicus [6] (route intraperitoneal), 48.23% in the data set with Rattus norvegicus [7] (route intraperitoneal) and 14.74% in the data set with Rattus norvegicus [8] (route intraperitoneal). Besides, the inhibition in vivo at 20 mg/kg in the data set with Rattus norvegicus [9] stood at 73.5%. The inhibition in vivo at 10 mg/kg in the data set on Rattus norvegicus [10] worked out at 67.5%. In addition, the inhibition in vivo at 5 mg/kg in the data set with Rattus norvegicus [11] was 36.6%. Besides, the pIC50 in data set [1] was 5.80; in [2], 5.76.
Consider `Cc1ccc(-c2cc(C(F)(F)F)nn2-c2ccc(S(N)(=O)=O)cc2)cc1` [CELECOXIB], for which the concentration at 4 h in [3] was 2680 ng/mL; in [4], 1130 ng/mL; in data set [5], 620 ng/mL. In addition, the Activity is recorded as 28.87% with Rattus norvegicus [6] (route intraperitoneal), 23.05% with Rattus norvegicus [7] (route intraperitoneal) and 24.02% in the data set on Rattus norvegicus [8] (route intraperitoneal). Further, in the data set with Rattus norvegicus [9], the inhibition in vivo at 20 mg/kg turned out to be 42.1%. For the same molecule, the inhibition in vivo at 10 mg/kg in the data set on Rattus norvegicus [10] is 27.3%. The inhibition in vivo at 5 mg/kg in the data set with Rattus norvegicus [11] is 15.7%.
For `CS(=O)(=O)Nc1ccncc1Nc1cccc(Cl)c1`, the concentration at 4 h in data set [3] was found to be 1860 ng/mL; in data set [4] it was 690 ng/mL; in data set [5], 260 ng/mL. Moreover, the outcome with Rattus norvegicus [6], with Rattus norvegicus [7] and in the data set with Rattus norvegicus [8] was inactive.
Consider `O=S(=O)(Nc1ccncc1Nc1ccc(F)cc1)C(F)(F)F`, for which the results for the pIC50 in [1] and in data set [2] were 6.52 and 6.57, respectively.
In [12], `O=S(=O)(Nc1ccncc1Nc1ccc(O)c(Br)c1)C(F)(F)F` had a Retention_time of 10.34 min. For the same molecule, the pIC50 in [1] was less than 4.00; in [2] it was 5.38.
Turning to `Cc1ccc(Nc2cnccc2NS(=O)(=O)C(F)(F)F)cc1Br`, the concentration at 4 h in data set [3] came out at 920 ng/mL; in data set [4], 180 ng/mL; in [5] it was 170 ng/mL. Besides, the Activity in the data set with Rattus norvegicus [6] (route intraperitoneal) is recorded as 44.06%; in the data set on Rattus norvegicus [7] (route intraperitoneal), 26.24%. For the same molecule, in the data set on Rattus norvegicus [8], the result was inactive. The inhibition in vivo at 20 mg/kg with Rattus norvegicus [9] is 71%. Moreover, the inhibition in vivo at 10 mg/kg in the data set on Rattus norvegicus [10] is 57.1%. Besides, the inhibition in vivo at 5 mg/kg in the data set on Rattus norvegicus [11] stood at 19.4%. In addition, the pIC50 was 7.05 in data set [1] and 5.85 in data set [2].

For the origin of these results see ChEMBL document CHEMBL3112465 (Eur J Med Chem, 2014).
